The term IC50 denotes the midpoint of a concentration-inhibition curve. In general, GI50 refers to the concentration at which growth is held to half of that of the control.

SMILES strings stand for the structures. Calls of active or inactive are those of the source. No cut-off for these calls is given here.

Data set [1] is described as follows: Inhibition of NF-kappaB-mediated gene transcription in HepG2 cells by luciferase reporter gene assay. The data set is classed as cell-based. The settings on record: Homo sapiens. (Reporter assays use an easily measured gene product as a stand-in for the process of interest.)
Data set [2] relates to HepG2. Description: Down regulation of cyclin D1 expression in HepG2 cells. The data set is classed as functional, cell-based. The conditions noted are these: Homo sapiens.
In data set [3] the test system is HepG2. Description: Antitumor activity against HepG2 cells xenografted nude mouse at 9 mg/kg, ip twice per day on every third day for four cycles. The data set is classed as functional, organism-based. Also noted: dose 9 mg/kg. The conditions noted are these: Homo sapiens.
A short description of data set [4]: Inhibition of CRE-mediated gene transcription in HepG2 cells by luciferase reporter gene assay. The conditions noted are these: Homo sapiens. Format: cell-based.
The next data set relates to PANC-1. Kind of data set: Cytotoxicity against PANC1 cells. The settings on record: Homo sapiens. Format: functional.
For data set [5], the system named is HepG2. Description: Cytotoxicity against HepG2 cells. The settings on record: Homo sapiens. The data set is classed as functional.
Data set [6] has as its system Mus musculus. Description: Reduction of body weight in HepG2 xenografted nude mouse at 9 mg/kg, ip after 10 days. The data set is classed as ADME, organism-based. Further details: dose 9 mg/kg, route intraperitoneal; scale not given: the % may be the effect or the level left. The conditions noted are these: in vivo, 240 h.
The subject of data set [7] is Mus musculus. Description: Reduction of body weight in HepG2 xenografted nude mouse at 9 mg/kg, ip after 9 days. Format: ADME, organism-based. Further details: dose 9 mg/kg, route intraperitoneal; scale not given: the % may be the effect or the level left. The settings on record: in vivo, 216 h.

In the case of `COc1ccc2c3c(c4cc(OC)c(O)cc4c2c1)CN1CCC[C@@H]1C3`, the IC50 in data set [1] stood at 11 nM; in data set [4] it was 135 nM. The Activity entry in the data set on HepG2 [2] is “Dose-dependent effect”. Also, the outcome with HepG2 [3] was inactive. The GI50 in the data set on PANC-1 turned out to be 11 nM; in the data set with HepG2 [5] it was 13 nM.

Consider `COc1ccc2c3c(c4cc(OC)c(OC)cc4c2c1)C[N+]1([O-])CCC[C@H]1[C@@H]3O` (some centres not stated) [TYLOPHORIDICINE F], for which the IC50 is 367 nM in data set [1] and greater than 1000 nM in data set [4]. For the same compound, in the data set on HepG2 [2], the Activity entry is “Dose-dependent effect”. Also, the GI50 in the data set with PANC-1 is 63 nM; with HepG2 [5] it was 71 nM.

As for `COc1ccc2c3c(c4cc(OC)c(O)cc4c2c1)C[N+]1([O-])CCC[C@H]1[C@H]3O` (some centres not stated) [TYLOPHORIDICINE C], the IC50 is 600 nM in data set [1] and greater than 1000 nM in data set [4]. For the same compound, the Activity result in the data set on HepG2 [2] was “Dose-dependent effect”. The GI50 stood at 67 nM in the data set with PANC-1 and 98 nM in the data set with HepG2 [5].

Regarding `COc1cc2c3c(c4cc(OC)c(OC)cc4c2cc1OC)[C@@H](O)[C@@H]1CCCN1C3`, the IC50 in data set [1] was 315 nM; in data set [4], greater than 300 nM.

On to `COc1ccc2c3c(c4cc(OC)c(O)cc4c2c1)CN1CCC[C@H]1[C@H]3O` [TYLOPHORINIDINE], for which the IC50 in data set [1] stood at 10 nM; in data set [4], 95 nM. In the data set with HepG2 [2], the Activity result was “Dose-dependent effect”. Further, in the data set on HepG2 [3], the result was Active. For the same compound, the concentration for 50% growth inhibition (GI50) was determined as 7 nM with PANC-1 and 11 nM with HepG2 [5].

For the compound `COc1ccc2c3c(c4cc(OC)c(OC)cc4c2c1)CN1CCC[C@H]1[C@@H]3O` [TYLOPHORININE], the IC50 was determined as 12 nM in data set [1] and 80 nM in data set [4]. The Activity result with HepG2 [2] is “Dose-dependent effect”. For the same compound, the GI50 in the data set on PANC-1 was determined as 11 nM; in the data set on HepG2 [5], 20 nM.

In the case of `COc1cc2c(cc1OC)-c1cc(OC)c(OC)cc1C1CN3CCC[C@H]3C=C21` (some centres not stated), the IC50 in data set [1] and in data set [4] was greater than 300 nM each time.

On to `COc1cc2c3c(c4ccc(O)cc4c2cc1OC)[C@H](O)[C@@H]1CCCN1C3` [TYLOPHORIDICINE E], for which the IC50 in data set [1] and in data set [4] was greater than 1000 nM each time. The Activity result in the data set with HepG2 [2] was “Dose-dependent effect”. Further, the GI50 with PANC-1 and with HepG2 [5] was greater than 5000 nM throughout.

As for `COc1cc2c3c(c4cc(OC)c(OC)cc4c2cc1OC)[C@H](O)[C@@H]1CCCN1C3`, the Activity in the data set on Mus musculus [6] and in the data set on Mus musculus [7] was 15% throughout. This compound gave an IC50 in data set [4] of 1070 nM.

Regarding `COc1cc2c3c(c4cc(OC)c(OC)cc4c2cc1O)CN1CCC[C@H]1[C@H]3O`, the IC50 was 322 nM in data set [1] and greater than 300 nM in data set [4]. In addition, in the data set with HepG2 [5], the GI50 was greater than 600 nM.
